Columns and labels:
[1] = target: T1, SMO-1 (Caenorhabditis elegans, UniProt P55853); assay: NMR titration (15N-HSQC chemical shift perturbation) of SMO-1 with SIM peptides; assay type: binding; parameters: inferred from pET15b vector with NdeI/BamHI and Ni-NTA purification) (N); made in house; host or cells: E. coli BL21(DE3)
[2] = target: T1, SMO-1; assay: In vitro SMO-1 conjugation assay with FITC-labelled synthetic peptide substrate (human Aos1/Uba2 E1, human Ubc9 E2); assay type: biochemical, C. elegans; parameters: inferred from pET15b vector with NdeI/BamHI and Ni-NTA purification) (N); made in house; conditions: 10mM of peptide, 50 μM SMO-1 or SUMO1, 1 μM E1, 2.5 μM E2, 1 mM ATP, 4°C, 12 hours, 20 mM Tris-Cl pH 8.5, 250 mM NaCl, 5 mM MgCl2, 0.1% v/v Tween 20; SDS-PAGE, FITC fluorescence 519 nm
Experimental: A synthetic peptide, sequence–[…] with Fluorescein iso-thiocyanate (FITC) label at the N-terminus was used as substrate. […] Reaction was carried out at 4°C for 12 hours. The reaction was started by adding 1 mM ATP. Reaction buffer contained 20 mM Tris-Cl pH 8.5, 250 mM NaCl, 5 mM MgCl2, 0.1% v/v Tween 20. […] Reaction buffer was the same as above. The reaction was carried out at 37°C for 4 hours. All reactions were stopped by adding reducing SDS loading dye. Reaction samples were run on 12% w/v SDS PAGE and analysed by probing FITC fluorescence at 519 nm wavelength (excitation wavelength– 495 nm).
To assess the ability of SMO-1 to be conjugated and deconjugated to substrates we developed an in vitro assay. […] As a substrate we used a synthetic peptide harbouring two consensus SUMOylation sites found in the IE2 protein (Fig 6A). To facilitate detection of SUMOylated peptide on SDS-PAGE gels we labelled the peptide with Fluorescein iso-thiocyanate (FITC) fluorophore. […] To verify, we carried out an in-vitro reaction with FITC tagged SMO-1.
(A) Sequence of FITC fluorophore labelled peptide used as substrate in in vitro SUMOylation assays. The lysines competent for SUMOylation are in bigger font and in bold face. All subsequent images were obtained by observing FITC fluorescence at 519 nm unless otherwise mentioned. […] The SDS-PAGE gel is imaged by observing YFP fluorescence. […]
Target sequence in this assay (P55853 1-90): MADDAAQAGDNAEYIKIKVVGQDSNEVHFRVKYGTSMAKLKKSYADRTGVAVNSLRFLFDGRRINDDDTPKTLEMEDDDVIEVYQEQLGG
Target sequence in this assay (P63279 whole entry, further chain): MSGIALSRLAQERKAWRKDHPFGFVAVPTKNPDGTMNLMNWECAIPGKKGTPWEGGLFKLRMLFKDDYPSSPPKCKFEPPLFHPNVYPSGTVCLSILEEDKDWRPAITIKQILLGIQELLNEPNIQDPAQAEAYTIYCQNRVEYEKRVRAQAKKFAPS

[3] = system: substrate-polySMO-1 conjugates; assay: In vitro SMO-1 deconjugation assay with SENP2 on SMO-1 chains from the peptide; assay type: biochemical; conditions: 10μM SENP2 (human), same reaction mix as conjugation, 25°C, 2–3 hours; SDS-PAGE, FITC fluorescence
Experimental: (§1) Deconjugation Assays were performed by adding 10μM SENP2 to poly-SUMO1/2 and poly-SMO-1 chains in the same reaction mix used for conjugation. Deconjugation reaction was carried out at 25°C for 2–3 hours. Reactions were stopped by adding reducing SDS loading dye. Reaction samples were run on 12% w/v SDS PAGE and analysed by probing FITC fluorescence at 519 nm wavelength (excitation wavelength– 495 nm). SMO-1-YFP was checked for deconjugation in 50mM Tris-Cl pH 7.5 @ 25°C, 150mM NaCl, 1mM DTT reaction buffer. SENP2 was mixed with SMO-1-YFP and incubated at temperatures from 25–37°C for 6 hours. The reaction mix were then run separately on two SDS-PAGE gels for imaging using fluorescence and for staining with Coomassie Brilliant Blue R-250 Dye.
(§2) DeSUMOylation enzymes can cleave SUMO chains, making the process reversible to enable another level of control over the SUMOylation process.

[4] = system: SMO-1-YFP; assay: De-conjugation (maturation) assay of SMO-1-YFP with SENP2; assay type: biochemical, C. elegans; conditions: 50mM Tris-Cl pH 7.5 @ 25°C, 150mM NaCl, 1mM DTT; 25–37°C, 6 hours; SDS-PAGE, YFP fluorescence and Coomassie
Experimental: as §1, §2

## CC[C@H](C)[C@H](NC(=O)[C@H](CS)NC(=O)CNC(=O)[C@H](C)NC(=O)[C@@H](NC(=O)[C@@H](N)CC(=O)O)[C@@H](C)O)C(=O)N[C@H](C(=O)N[C@H](C(=O)N[C@@H](CO)C(=O)N[C@@H](CC(=O)O)C(=O)N[C@@H](CO)C(=O)N[C@@H](CCC(=O)O)C(=O)N[C@@H](CCC(=O)O)C(=O)N[C@@H](CCC(=O)O)C(=O)N[C@@H](CCC(N)=O)C(=O)NCC(=O)N[C@@H](CCC(=O)O)C(=O)N[C@@H](CCC(=O)O)C(=O)N[C@@H](Cc1c[nH]c2ccccc12)C(=O)O)[C@@H](C)CC)C(C)C [IE2-SIM]
[1]
  Kd: 108 µM

## PLIKQEDIKPEPDFTIQYRNKIIDTAGCIVISDSEEE [synthetic peptide, synthetic peptide harbouring two consensus SUMOylation sites found in the IE2 protein]
[2]
  SMO-1 conjugation on the substrate: Rapid SMO-1 conjugation was observed on the substrate

B1: SENP2: human deSUMOylation enzyme (protein, UniProt Q9HC62 1-589, looked up)
Sentrin-specific protease 2: MYRWLVRILGTIFRFCDRSVPPARALLKRRRSDSTLFSTVDTDEIPAKRPRLDCFIHQVKNSLYNAASLFGFPFQLTTKPMVTSACNGTRNVAPSGEVFSNSSSCELTGSGSWNNMLKLGNKSPNGISDYPKIRVTVTRDQPRRVLPSFGFTLNSEGCNRRPGGRRHSKGNPESSLMWKPQEQAVTEMISEESGKGLRRPHCTVEEGVQKEEREKYRKLLERLKESGHGNSVCPVTSNYHSSQRSQMDTLKTKGWGEEQNHGVKTTQFVPKQYRLVETRGPLCSLRSEKRCSKGKITDTETMVGIRFENESRRGYQLEPDLSEEVSARLRLGSGSNGLLRRKVSIIETKEKNCSGKERDRRTDDLLELTEDMEKEISNALGHGPQDEILSSAFKLRITRGDIQTLKNYHWLNDEVINFYMNLLVERNKKQGYPALHVFSTFFYPKLKSGGYQAVKRWTKGVNLFEQEIILVPIHRKVHWSLVVIDLRKKCLKYLDSMGQKGHRICEILLQYLQDESKTKRNSDLNLLEWTHHSMKPHEIPQQLNGSDCGMFTCKYADYISRDKPITFTQHQMPLFRKKMVWEILHQQLL
[3]
  cleavage of SMO-1 chains from peptide by SENP2: could efficiently edit the SMO-1 chains from the peptide
[4]
  cleavage of SMO-1 from SMO-1-YFP by SENP2: could cleave SMO-1 from SMO-1-YFP
